Broadly, the pIC50 is −log10 of the IC50, conventionally taken in molar units. Read a high pIC50 as a small IC50.

Holding throughout (format): biochemical
For test [1], the target named is T1, dopamine (DA) reuptake, rat corpora striata (Rattus norvegicus, UniProt P23977).
T1 construct: using rat corpora striata as a tissue source; from tissue; host or cells: rat corpora striata synaptosomes
In words: Inhibition of dopamine (DA) reuptake, [3H]DA incorporation into synaptosomes. The conditions noted are these: for DA reuptake Hill coefficient (nH): Hill equation curve fitting; for pIC50: [3H]DA 0.2 μCi/mL, 15 min/37° C. As for the experimental part: (§1) Bupropion metabolites can be screened for their ability to inhibit the reuptake of the neuronal monoamines norepiniephrine (NE), dopaminc (DA), and serotonin (5-HT). […] Other assays known to those skilled in the art may also be used.
(§2) Inhibition of norepincphrinie (NE) reuptake was determined using rat hypothalamus as a tissue source and protryptiline as a reference compound. […] Inhibition of serotonin (5-HT) reuptake was determined using rat brain as a tissue source and imipramine as a reference compound.
(§3) wherein the end products observed were formed by the incorporation of [^3H]NE, [^3H]DA, and [^3H]5-HT into synaptosomes. Radioactivity was determined with a scintillation counter (Topcount, Packard) using a liquid scintillation cocktail (Microscint 0, Packard).
(§4) Raceinic bupropion and the bupropion metabolites were first tested in each assay at 10 μM in duplicate or triplicate. […] In each experiment, the respective reference compound was tested at eight concentrations in duplicate to obtain an inhibition curve in order to validate this experiment.
(§5) IC50 values and Hill coefficients (nH) were determined for the reference compounds and the test compounds (i.e., bupropion and metabolites of bupropion) by non-linear regression analysis of their inhibition curves. These parameters were obtained by Hill equation curve fitting.

Test [2] concerns the target T2, norepinephrine (NE) reuptake, rat hypothalamus (Rattus norvegicus, UniProt Q63380).
T2 construct: using rat hypothalamus as a tissue source; from tissue; host or cells: rat hypothalamus synaptosomes
Briefly: Inhibition of norepinephrine (NE) reuptake, [3H]NE incorporation into synaptosomes. As to conditions: for NE reuptake Hill coefficient (nH): Hill equation curve fitting; for pIC50: [3H]NE 0.2 μCi/mL, 20 min/37° C. On the procedure:
as §1, §2, §3, §4, §5

Test [3] addresses T3, serotonin (5-HT) reuptake, rat brain (Rattus norvegicus, UniProt P31652).
T3 construct: using rat brain as a tissue source; from tissue; host or cells: rat brain synaptosomes
Briefly: Inhibition of serotonin (5-HT) reuptake, [3H]5-HT incorporation into synaptosomes. As to conditions: [3H]5-HT 0.2 μCi/mL, 15 min/37° C., first tested at 10 μM. On the procedure:
as §1, §2, §3, §4, §5

pIC50: −log10 of the molar value. Several values for one entry are separate records, joined by “and”; a condition that tells them apart may be missing. Identical values can stand only once.

T2 sequence (Q63380 1-617): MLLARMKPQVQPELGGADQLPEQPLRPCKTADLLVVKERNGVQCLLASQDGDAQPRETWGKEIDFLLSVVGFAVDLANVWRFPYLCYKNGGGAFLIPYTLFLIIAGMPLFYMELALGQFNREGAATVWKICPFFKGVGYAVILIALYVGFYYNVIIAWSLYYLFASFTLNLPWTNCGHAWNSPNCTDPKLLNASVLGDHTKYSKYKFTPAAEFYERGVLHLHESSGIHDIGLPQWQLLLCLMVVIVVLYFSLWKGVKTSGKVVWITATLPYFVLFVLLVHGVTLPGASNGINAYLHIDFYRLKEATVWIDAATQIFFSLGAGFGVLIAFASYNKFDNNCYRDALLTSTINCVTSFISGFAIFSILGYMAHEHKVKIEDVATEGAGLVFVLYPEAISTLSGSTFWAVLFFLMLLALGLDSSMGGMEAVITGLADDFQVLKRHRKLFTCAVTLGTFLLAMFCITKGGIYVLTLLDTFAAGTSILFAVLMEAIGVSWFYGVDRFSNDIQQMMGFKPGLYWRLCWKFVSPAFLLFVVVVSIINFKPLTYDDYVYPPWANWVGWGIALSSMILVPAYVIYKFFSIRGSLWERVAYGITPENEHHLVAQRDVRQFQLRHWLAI
T1 sequence (P23977 whole entry): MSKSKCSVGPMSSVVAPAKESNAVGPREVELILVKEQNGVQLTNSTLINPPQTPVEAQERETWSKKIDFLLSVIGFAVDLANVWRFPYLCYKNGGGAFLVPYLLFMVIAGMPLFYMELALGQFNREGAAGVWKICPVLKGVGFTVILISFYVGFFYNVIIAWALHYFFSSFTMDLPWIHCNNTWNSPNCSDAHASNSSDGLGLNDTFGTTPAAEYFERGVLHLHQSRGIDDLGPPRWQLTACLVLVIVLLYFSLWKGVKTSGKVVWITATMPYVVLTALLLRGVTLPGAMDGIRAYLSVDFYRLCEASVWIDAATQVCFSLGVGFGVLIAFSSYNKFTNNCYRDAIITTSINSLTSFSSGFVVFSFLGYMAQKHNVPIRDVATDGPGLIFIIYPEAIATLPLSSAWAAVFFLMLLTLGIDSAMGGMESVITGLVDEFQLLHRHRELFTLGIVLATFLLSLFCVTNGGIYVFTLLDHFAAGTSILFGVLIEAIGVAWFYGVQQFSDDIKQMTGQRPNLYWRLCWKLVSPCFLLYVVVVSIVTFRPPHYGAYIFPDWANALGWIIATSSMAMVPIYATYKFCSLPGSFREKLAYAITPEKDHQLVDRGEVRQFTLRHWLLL
T3 sequence (P31652 whole entry): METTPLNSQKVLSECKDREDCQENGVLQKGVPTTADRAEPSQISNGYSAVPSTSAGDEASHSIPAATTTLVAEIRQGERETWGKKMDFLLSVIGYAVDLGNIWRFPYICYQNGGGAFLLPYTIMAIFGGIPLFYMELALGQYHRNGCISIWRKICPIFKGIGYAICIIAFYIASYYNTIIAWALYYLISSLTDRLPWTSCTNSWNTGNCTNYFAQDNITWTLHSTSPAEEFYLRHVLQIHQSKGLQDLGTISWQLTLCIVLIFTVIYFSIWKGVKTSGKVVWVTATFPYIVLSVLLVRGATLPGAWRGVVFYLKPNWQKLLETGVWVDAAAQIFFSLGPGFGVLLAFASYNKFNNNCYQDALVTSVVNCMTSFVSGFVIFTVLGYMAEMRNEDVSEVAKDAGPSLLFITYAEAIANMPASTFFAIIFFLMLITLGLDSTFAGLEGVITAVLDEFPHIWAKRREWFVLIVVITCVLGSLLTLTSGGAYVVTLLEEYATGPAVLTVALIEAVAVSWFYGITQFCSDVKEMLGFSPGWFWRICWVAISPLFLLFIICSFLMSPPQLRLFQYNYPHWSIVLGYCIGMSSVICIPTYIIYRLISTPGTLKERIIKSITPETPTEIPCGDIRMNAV

On to `CC(NC(C)(C)C)C(=O)c1cccc(Cl)c1` (racemic) [BP(±), (±)1-(3-chlorophenyl)-2-[(1,1-dimethylethyl)amino]-1-propanone, reference compound], for which, in test [1], the “DA reuptake Hill coefficient (nH)” value is “(0.9)”; the pIC50 was ~6.53 and 6.53. Moreover, in test [2], the “NE reuptake Hill coefficient (nH)” value was “(>3)”; the negative logarithm of the IC50 (pIC50) is ~6.13 and 6.13.
On to `C[C@@H]1NC(C)(C)CO[C@@]1(O)c1cccc(Cl)c1` [HBP(S, S)], for which, in test [1], the “Inhibition of dopamine reuptake (in words)” value is on record as “does not significantly inhibit dopamine reuptake”, the “DA reuptake Hill coefficient (nH)” value was “(1.0)” and the pIC50 was 5.85. Besides, the pIC50 in test [1] (listed as (S,S)-hydroxybupropion) was approximately 5.85. Also, in test [2], the “NE reuptake Hill coefficient (nH)” value is “(0.8)” and the pIC50 was 6.64. Besides, the “Inhibition of 5-HT reuptake (in words)” value in test [3] is “does not measurably inhibit serotonin uptake”.
Regarding `CC1NC(C)(C)COC1(O)c1cccc(Cl)c1` (racemic) [HBP(RS, RS), (RS,RS)-2-(3-chlorophenyl)-2-hydroxy-3,5,5-trimethyl-morpholinol], in test [2], the “NE reuptake Hill coefficient (nH)” value was “(1.1)” and the pIC50 is 6.12.
As to `CNCCCC1c2ccccc2C=Cc2ccccc21` [protriptyline], the “NE reuptake Hill coefficient (nH)” value in test [2] was 2.6 and 1.4.

Source of the values: patent publication US6337328B1, “Bupropion metabolites and methods of use” (priority 1999, dated 2002).
